Test results taken from patent US10098902B2, “Arginase inhibitors as therapeutics” (Mars, Incorporated, priority 2010, dated 2018).

Columns and labels:
human arginase I (ARG I) = human arginase I (ARG I) (Homo sapiens (Human), UniProt P05089); experiment: Inhibition of arginase I, spectrophotometric urea assay at 530 nm; type: biochemical; details: potency rank 1-5; pH 7.4, 37° C., 60 minutes
Method: (§1) Inhibition of arginase I (ARG I) and arginase II (ARG II) by Formula I or Formula II compounds is followed spectrophotometrically at 530 nm. The compound to be tested was dissolved in DMSO at an initial concentration 50-fold greater than its final concentration in the cuvette. 10 μl of the stock solution was diluted in 90 μl of the assay buffer that comprises 0.1M sodium phosphate buffer containing 130 mM NaCl, pH 7.4, to which is added ovalbumin (OVA) at a concentration of 1 mg/ml. Solutions of arginase I and II were prepared in 100 mM sodium phosphate buffer, pH 7.4 containing 1 mg/ml of OVA to give an arginase stock solution at a final concentration of 100 ng/ml.
(§2) To each well of a 96-well microtiter plate was added 40 μl of enzyme, 10 μl of an inventive compound and 10 μl of enzyme substrate (L-arginine+manganese sulfate). For wells that were used as positive controls, only the enzyme and its substrate were added, while wells used as negative controls contained only manganese sulfate.
(§3) After incubating the microtiter plate at 37° C. for 60 minutes, 150 μl of a urea reagent obtained by combining equal proportions (1:1) of reagents A and B is added to each well of the microtiter plate to stop the reaction. The urea reagent is made just before use by combining Reagent A (10 mM o-phthaldialdehyde, and 0.4% polyoxyethylene (23) lauryl ether (w/v) in 1.8 M sulfuric acid) with Reagent B (1.3 mM primaquine diphosphate, 0.4% polyoxyethylene (23) lauryl ether (w/v), 130 mM boric acid in 3.6 mM sulfuric acid). After quenching the reaction mixture, the microtiter plate is allowed to stand for an additional 10 minutes at room temperature to allow the color to develop. The inhibition of arginase was computed by measuring the optical density (OD) of the reaction mixture at 530 nm and normalizing the OD value to percent inhibition observed in the control. The normalized OD is then used to generate a dose-response curve by plotting the normalized OD values against log [concentration] and using regression analysis to compute the IC50 values.

[1] = target: human arginase II (ARG II) (Homo sapiens (Human), UniProt P78540); experiment: Inhibition of arginase II, spectrophotometric urea assay at 530 nm; type: biochemical; details: potency rank 1-5; pH 7.4, 37° C., 60 minutes
Chain of human arginase II (ARG II) (P78540 23-354): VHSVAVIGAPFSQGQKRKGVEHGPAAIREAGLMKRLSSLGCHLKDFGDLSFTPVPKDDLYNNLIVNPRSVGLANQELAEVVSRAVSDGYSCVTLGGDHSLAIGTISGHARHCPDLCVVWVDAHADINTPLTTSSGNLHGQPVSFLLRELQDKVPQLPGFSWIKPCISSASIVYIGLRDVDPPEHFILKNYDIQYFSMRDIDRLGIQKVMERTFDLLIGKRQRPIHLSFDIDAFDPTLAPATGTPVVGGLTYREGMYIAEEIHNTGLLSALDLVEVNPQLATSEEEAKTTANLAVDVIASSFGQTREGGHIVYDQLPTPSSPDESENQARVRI
Method: as §1, §2, §3

Chain of human arginase I (ARG I) (P05089 whole entry): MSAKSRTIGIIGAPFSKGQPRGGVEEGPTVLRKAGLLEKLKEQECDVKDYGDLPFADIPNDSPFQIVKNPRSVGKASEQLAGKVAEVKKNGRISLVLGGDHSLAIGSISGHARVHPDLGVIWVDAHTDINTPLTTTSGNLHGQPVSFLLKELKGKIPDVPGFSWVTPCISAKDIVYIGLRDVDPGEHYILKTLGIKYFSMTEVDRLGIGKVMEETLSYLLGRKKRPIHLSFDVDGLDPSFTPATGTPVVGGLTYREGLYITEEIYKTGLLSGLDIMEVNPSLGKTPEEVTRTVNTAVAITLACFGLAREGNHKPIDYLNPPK

Row | IC50 (human arginase I (ARG I)) [nM] | IC50 [1] [nM] | Compound
1 | 251 to 1000 | 251 to 1000 | N[C@@]1(C(=O)O)CN(c2cncc(C(=O)O)c2)C[C@@H]1CCCB(O)O [Example 25, 5-((3R,4S)-3-amino-4-(3-boronopropyl)-3-carboxypyrrolidin-1-yl)nicotinic acid]
2 | 251 to 1000 | 251 to 1000 | N[C@@]1(C(=O)O)CN(C2CCNCC2)C[C@@H]1CCCB(O)O [Example 26, (3R,4S)-3-amino-4-(3-boronopropyl)-1-(piperidin-4-yl)pyrrolidine-3-carboxylic acid]
3 | 0.1 to 250 | 0.1 to 250 | N[C@@]1(C(=O)O)CN(C2CCNC2)C[C@@H]1CCCB(O)O (stereo partly drawn) [Example 27, (3R,4S)-3-amino-4-(3-boronopropyl)-1,3′-bipyrrolidine-3-carboxylic acid]
4 | 0.1 to 250 | 251 to 1000 | N[C@@]1(C(=O)O)CN(C2CCCNC2)C[C@@H]1CCCB(O)O (stereo partly drawn) [Example 28, (3R,4S)-3-amino-4-(3-boronopropyl)-1-(piperidin-3-yl)pyrrolidine-3-carboxylic acid]
5 | 1000 to 2000 | 1000 to 2000 | N[C@@]1(C(=O)O)CN(Cc2ccccn2)C[C@@H]1CCCB(O)O [Example 29, (3R,4S)-3-amino-4-(3-boronopropyl)-1-(pyridin-2-ylmethyl)pyrrolidine-3-carboxylic acid]
6 | 251 to 1000 | 1000 to 2000 | N[C@@]1(C(=O)O)CN(C2CCC(C(=O)O)CC2)C[C@@H]1CCCB(O)O (stereo partly drawn) [Example 30, (3R,4S)-3-amino-4-(3-boronopropyl)-1-(4-carboxycyclohexyl)pyrrolidine-3-carboxylic acid]
7 | 0.1 to 250 | 251 to 1000 | Cn1ccnc1CN1C[C@H](CCCB(O)O)[C@](N)(C(=O)O)C1 [Example 31, (3R,4S)-3-amino-4-(3-boronopropyl)-1-((1-methyl-1H-imidazol-2-yl)methyl)pyrrolidine-3-carboxylic acid]
8 | 1000 to 2000 | 1000 to 2000 | Cc1ccncc1N1C[C@H](CCCB(O)O)[C@](N)(C(=O)O)C1 [Example 32, (3R,4S)-3-amino-4-(3-boronopropyl)-1-(4-methylpyridin-3-yl)pyrrolidine-3-carboxylic acid]
9 | 0.1 to 250 | 251 to 1000 | N[C@@]1(C(=O)O)CN(CCN2CCCCC2)C[C@@H]1CCCB(O)O [Example 33, (3R,4S)-3-amino-4-(3-boronopropyl)-1-(2-(piperidin-1-yl)ethyl)pyrrolidine-3-carboxylic acid]
10 | 0.1 to 250 | 251 to 1000 | CCN(CC)CCN1C[C@H](CCCB(O)O)[C@](N)(C(=O)O)C1 [Example 34, (3R,4S)-3-amino-4-(3-boronopropyl)-1-(2-(diethylamino)ethyl)pyrrolidine-3-carboxylic acid]
11 | 0.1 to 250 | 251 to 1000 | CN1CCCCC1CN1C[C@H](CCCB(O)O)[C@](N)(C(=O)O)C1 (stereo partly drawn) [Example 36, (3R,4S)-3-amino-4-(3-boronopropyl)-1-((1-methylpiperidin-2-yl)methyl)pyrrolidine-3-carboxylic acid]
12 | 0.1 to 250 | 251 to 1000 | N[C@@]1(C(=O)O)CN(CC2CCCN2)C[C@@H]1CCCB(O)O (stereo partly drawn) [Example 37, (3R,4S)-3-amino-4-(3-boronopropyl)-1-(pyrrolidin-2-ylmethyl)pyrrolidine-3-carboxylic acid]
13 | 0.1 to 250 | 0.1 to 250 | N[C@@]1(C(=O)O)CN(CCN2CCCC2)C[C@@H]1CCCB(O)O [Example 38, (3R,4S)-3-amino-4-(3-boronopropyl)-1-(2-(pyrrolidin-1-yl)ethyl)pyrrolidine-3-carboxylic acid]
14 | 0.1 to 250 | 0.1 to 250 | N[C@@]1(C(=O)O)CN(C[C@@H]2Cc3ccccc3CN2)C[C@@H]1CCCB(O)O [Example 39, (3R,4S)-3-amino-4-(3-boronopropyl)-1-(((S)-1,2,3,4-tetrahydroisoquinolin-3-yl)methyl)pyrrolidine-3-carboxylic acid]
15 | 0.1 to 250 | 0.1 to 250 | N[C@@]1(C(=O)O)CN(CCNCc2ccccc2)C[C@@H]1CCCB(O)O [Example 40, (3R,4S)-3-amino-1-(2-(benzylamino)ethyl)-4-(3-boronopropyl)pyrrolidine-3-carboxylic acid]
16 | 0.1 to 250 | 0.1 to 250 | N[C@@]1(C(=O)O)CN(CCNCc2ccc(Cl)c(Cl)c2)C[C@@H]1CCCB(O)O [Example 41, (3R,4S)-3-amino-4-(3-boronopropyl)-1-(2-(3,4-dichlorobenzylamino)ethyl)pyrrolidine-3-carboxylic acid]
17 | 251 to 1000 | 251 to 1000 | N[C@@]1(C(=O)O)CN(C(=O)Nc2ccc(Cl)cc2)C[C@@H]1CCCB(O)O [Example 42, (3R,4S)-3-amino-4-(3-boronopropyl)-1-(4-chlorophenylcarbamoyl)pyrrolidine-3-carboxylic acid]
18 | 0.1 to 250 | 0.1 to 250 | NC1CCCCC1N1C[C@H](CCCB(O)O)[C@](N)(C(=O)O)C1 (stereo partly drawn) [Example 44, (3R,4S)-3-amino-1-(2-aminocyclohexyl)-4-(3-boronopropyl)pyrrolidine-3-carboxylic acid]
19 | 251 to 1000 | 251 to 1000 | N[C@@]1(C(=O)O)CN(C(=O)Cc2ccc(Cl)cc2)C[C@@H]1CCCB(O)O [Example 45, (3R,4S)-3-amino-4-(3-boronopropyl)-1-(2-(4-chlorophenyl)acetyl)pyrrolidine-3-carboxylic acid]
20 | 251 to 1000 | 251 to 1000 | COc1ccc(C(=O)N2C[C@H](CCCB(O)O)[C@](N)(C(=O)O)C2)cc1 [Example 47, (3R,4S)-3-amino-4-(3-boronopropyl)-1-(4-methoxybenzoyl)pyrrolidine-3-carboxylic acid]
21 | 0.1 to 250 | 0.1 to 250 | N[C@@]1(C(=O)O)CN(CC2Cc3ccc(Cl)cc3CN2)C[C@@H]1CCCB(O)O (stereo partly drawn) [Example 49, (3R,4S)-3-amino-4-(3-boronopropyl)-1-((7-chloro-1,2,3,4-tetrahydroisoquinolin-3-yl)methyl)pyrrolidine-3-carboxylic acid]
22 | 251 to 1000 | 1000 to 2000 | Nc1ccccc1S(=O)(=O)N1C[C@H](CCCB(O)O)[C@](N)(C(=O)O)C1 [Example 50, (3R,4S)-3-amino-1-(2-aminophenylsulfonyl)-4-(3-boronopropyl)pyrrolidine-3-carboxylic acid]
23 | 0.1 to 250 | 0.1 to 250 | N[C@@]1(C(=O)O)CN(CC2Cc3cc(Cl)ccc3CN2)C[C@@H]1CCCB(O)O (stereo partly drawn) [Example 51, (3R,4S)-3-amino-4-(3-boronopropyl)-1-((6-chloro-1,2,3,4-tetrahydroisoquinolin-3-yl)methyl)pyrrolidine-3-carboxylic acid]
24 | 0.1 to 250 | 0.1 to 250 | N[C@@]1(C(=O)O)CN(CCNc2ccc(-c3ccccc3)cc2)C[C@@H]1CCCB(O)O [Example 52, (3R,4S)-3-amino-1-(2-(biphenyl-4-ylamino)ethyl)-4-(3-boronopropyl)pyrrolidine-3-carboxylic acid]
25 | 0.1 to 250 | 0.1 to 250 | N[C@@]1(C(=O)O)CN(CC2Cc3ccc(C(F)(F)F)cc3CN2)C[C@@H]1CCCB(O)O (stereo partly drawn) [Example 55, (3R,4S)-3-amino-4-(3-boronopropyl)-1-((7-(trifluoromethyl)-1,2,3,4-tetrahydroisoquinolin-3-yl)methyl)pyrrolidine-3-carboxylic acid]
26 | 0.1 to 250 | 0.1 to 250 | N[C@@]1(C(=O)O)CN(C(=O)C2Cc3ccc(Cl)cc3CN2)C[C@@H]1CCCB(O)O (stereo partly drawn) [Example 56, (3R,4S)-3-amino-4-(3-boronopropyl)-1-(7-chloro-1,2,3,4-tetrahydroisoquinoline-3-carbonyl)pyrrolidine-3-carboxylic acid]
27 | 1000 to 2000 | 1000 to 2000 | CNC(Cc1ccccc1)C(=O)N1C[C@H](CCCB(O)O)[C@](N)(C(=O)O)C1 (stereo partly drawn) [Example 58, (3R,4S)-3-amino-4-(3-boronopropyl)-1-(2-(methylamino)-3-phenylpropanoyl)pyrrolidine-3-carboxylic acid]
28 | 0.1 to 250 | 0.1 to 250 | N[C@@]1(C(=O)O)CN(CC2Cc3c(Cl)cc(Cl)cc3CN2)C[C@@H]1CCCB(O)O (stereo partly drawn) [Example 59, (3R,4S)-3-amino-4-(3-boronopropyl)-1-((5,7-dichloro-1,2,3,4-tetrahydroisoquinolin-3-yl)methyl)pyrrolidine-3-carboxylic acid]

Row | Compound | IC50 (human arginase I (ARG I)) [nM] | IC50 [1] [nM]
29 | CN[C@@]1(C(=O)O)CNC[C@@H]1CCCB(O)O [Example 35, (3R,4S)-4-(3-boronopropyl)-3-(methylamino)pyrrolidine-3-carboxylic acid] | 251 to 1000 | 251 to 1000
30 | N[C@@]1(C(=O)O)CN(C(=O)[C@@H]2CCCN2)C[C@@H]1CCCB(O)O [Example 43, (3R,4S)-3-amino-4-(3-boronopropyl)-1-((S)-pyrrolidine-2-carbonyl)pyrrolidine-3-carboxylic acid] | 0.1 to 250 | 251 to 1000
